In brackets after ≈: the same amount, converted by molar mass. Read-outs that look alike come from different tables or passages of the source.

Common to all, as to test: Minimum growth inhibitory concentration, method of the Japan Society of Chemotherapy
What all share (format): cell-based

One test deals with Escherichia coli EC-7437. To be noted: EC7437; bacteria F: Escherichia coli EC-7437; bacteria ×10⁶/ml. From the text:
(§1) The results are shown in Table 1. • (A) : Staphylococcus aureus SR3131 • (B) : Staphylococcus aureus SR3637 • (C) : Staphylococcus aureus SR57690FLX-R* • (D) : Streptococcus pneumoniae • (E) : Streptococcus faecalis SR58180FLX-R* • (F) : Escherichia coli EC-7437 • (G) : Escherichia coli SR5038 OFLX-R* * : ofloxacin resistant bacteria

Test [1] relates to Staphylococcus aureus SR3637. The note with it: bacteria B: Staphylococcus aureus SR3637; bacteria ×10⁶/ml.
From the text: as §1

The test system of the next test is Streptococcus pneumoniae. The note with it: bacteria D: Streptococcus pneumoniae; bacteria ×10⁶/ml.
From the text: as §1

For test [2], the system named is Staphylococcus aureus SR57690FLX-R. To be noted: SR57690FLXR, read-out: Minimum Inhibitory Concentration.
From the text: as §1

In test [3] the test system is Streptococcus faecalis SR58180FLX-R. The note with it: Enterococcus faecalis, SR58180FLXR, read-out: Minimum Inhibitory Concentration.
From the text: as §1

Test [4] has as its system Escherichia coli SR5038 OFLX-R. The note with it: SR5038OFLXR, read-out: Minimum Inhibitory Concentration.
From the text: as §1

The subject of test [5] is Staphylococcus aureus SR3131. To be noted: bacteria A: Staphylococcus aureus SR3131; bacteria ×10⁶/ml.
From the text: as §1

Take `C=C1CN(c2c(F)cc3c(=O)c(C(=O)O)cn(C4CC4)c3c2F)C[C@H]1NC` [Compound 1, 7-((-)-(S)-3-Methylamino-4-methylenepyrrolidine)-1-cyclopropyl-6,8-difluoro-1,4-dihydro-4-oxo-3-quinolinecarboxylic acid]: the MIC in the test with Escherichia coli EC-7437 was under 0.003 µg/mL; in test [1], 0.05 µg/mL (≈ 0.133 µM); with Streptococcus pneumoniae, 0.2 µg/mL (≈ 0.533 µM); in test [2], 6.3 µg/mL (≈ 16.8 µM); in test [3], 6.3 µg/mL (≈ 16.8 µM); in test [4] (Escherichia coli) it was 12.5 µg/mL (≈ 33.3 µM). In addition, in test [5], the MIC came to 0.05 µg/mL (≈ 0.133 µM).

Consider `CC1COc2c(N3CCN(C)CC3)c(F)cc3c(=O)c(C(=O)O)cn1c23` (stereo not drawn) [Ofloxacin], for which the MIC against Escherichia coli EC-7437 is under 0.02 µg/mL; in test [1] it was 0.4 µg/mL (≈ 1.11 µM); in the test with Streptococcus pneumoniae it was 1.6 µg/mL (≈ 4.43 µM); in test [2], 50 µg/mL (≈ 138 µM); in test [3] it was 100 µg/mL (≈ 277 µM); in test [4] (bacteria G: Escherichia coli SR5038 OFLX-R, ofloxacin resistant, bacteria ×10⁶/ml), 50 µg/mL (≈ 138 µM). Also, the MIC in test [5] was found to be 0.4 µg/mL (≈ 1.11 µM).

With `C=C1CN(c2c(F)cc3c(=O)c(C(=O)O)cn(C4CC4)c3c2F)CC1NC` (racemic) [Racemate of the compound 1], the MIC is 0.006 µg/mL (≈ 0.016 µM) against Escherichia coli EC-7437; 0.1 µg/mL (≈ 0.266 µM) in test [1]; 0.4 µg/mL (≈ 1.07 µM) with Streptococcus pneumoniae; 6.3 µg/mL (≈ 16.8 µM) in test [2]; 12.5 µg/mL (≈ 33.3 µM) in test [3]; 12.5 µg/mL (≈ 33.3 µM) in test [4] (Escherichia coli). Besides, the MIC in test [5] is 0.1 µg/mL (≈ 0.266 µM).

The values above are taken from EP0487030A2, “Process of optical resolution for the preparation of an optically active cyclic amine” (SHIONOGI SEIYAKU KABUSHIKI KAISHA trading under the name of …, priority 1990, dated 1992).
